In patent US9580487B2, “Method of treating stomach or bowel-related disorders by administering glucagon-like-peptide-2 (GLP-2) analogues” (Zealand Pharma A/S, priority 2005, dated 2017):
Entries after “also recorded” stand apart in the source; their conditions may differ. No end group written: not given here.

Legend:
male C57BL mice = assay: Screening for intestinal growth effects (small intestine and colon mass relative to body weight, small intestine-colon sensitivity index); assay type: in vivo; details: for Small intestine mass relative to [Gly2]GLP-2 / Preferential growth of small intestine versus colon (small intestine-colon sensitivity): 30 nmol/kg s.c. twice daily, ten days; for Small intestine mass relative to [Gly2]GLP-2: equimolar [Gly2]GLP-2; for Preferential growth of small intestine versus colon (small intestine-colon sensitivity): relative to [Gly2]GLP-2; for colon mass relative to body weight, % [Gly2]GLP-2 / small intestine-colon sensitivity index, (SI/Colon)X/(SI/Colon)[Gly2]GLP-2 %: male C57BL mice, 30 nmol/kg s.c. twice daily for ten days; for small intestine-colon sensitivity index, (SI/Colon)X/(SI/Colon)[Gly2]GLP-2 %: third value column
Procedure, shortened: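 Groups of six mice were dosed s.c. at 30 nmol/kg twice daily for ten days, with vehicle (PBS, pH 7.4) or equimolar [Gly2]GLP-2 as comparators. The sensitivity index was (SI/Colon) of the compound over that of [Gly2]GLP-2, with ≥1.05 counted as small-intestine-selective and ≤0.95 as colon-selective.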

[1] = test system: C57BL mice treated with 5-Fluorouracil (5-FU); assay: 5-FU-induced small intestinal atrophy (SI-BW, SI length) in mice; assay type: in vivo; details: for 5-FU-induced small intestine atrophy (SI-BW, SI length): 5-405 (810) nmol/kg s.c. b.i.d., 3 days prior to and 4 days with 5-FU 50 mg/kg i.p. daily; for Efficacy on SI-length compared with 405 nmol/kg [Gly2]GLP-2 / Efficacy on SI-BW compared with 405 nmol/kg [Gly2]GLP-2: 5-FU treated mice; for Efficacy on SI-BW compared with 405 nmol/kg [Gly2]GLP-2: equimolar dose; for Efficacy on 5-FU-induced atrophy compared with [Gly2]GLP-2 (figure legends): high/highest doses vs [Gly2]GLP-2 405 nmol/kg
Description: (§1) FIG. 6 is a set of graphs showing the effect of compound 1846 (SEQ ID NO:34) (5, 15, 45, 135, 405 and 810 nmol/kg, s.c., b.i.d.; n=6/dose group) on A) small intestine-to-body weight ratio (SI-BW), and B) small intestinal length (SI length) in mice treated with the cytostatic drug 5-Fluorouracil (5-FU). Compound 1846 (SEQ ID NO:34) was administered for 3 days prior to and for 4 days together with 5-FU, 50 mg/kg, i.p. daily. For reference, [Gly2]GLP-2 (SEQ ID NO:54) (405 nmol/kg) was given to one group of animals. Results from control animals treated with vehicle (PBS) or 5-FU alone are also shown. […] Values are means±SEM. * P<0.05, relative to 5-FU.
as §1, with “FIG. 7” for “FIG. 6”, “compound 1848” for “compound 1846”, “ID NO:36)” for “ID NO:34)”, “Compound 1848” for “Compound 1846”, “5-FU. # P<0.05, relative to [Gly2]GLP-2.” for “5-FU.”
FIG. 8 is a set of graphs showing the effect of compound 1855 (SEQ ID NO:43) (5, 15, 45, 135, and 405 nmol/kg, s.c., b.i.d.; n=6/dose group) on A) small intestine-to-body weight ratio (SI-BW), and B) small intestinal length (SI length) in mice treated with the cytostatic drug 5-Fluorouracil (5-FU). Compound 1855 (SEQ ID NO:43) was administered for 3 days prior to and for 4 days together with 5-FU, 50 mg/kg, i.p. daily. For reference, [Gly2]GLP-2 (405 nmol/kg) was given to one group of animals. Results from control animals treated with vehicle (PBS) or 5-FU alone are also shown. […] Values are means±SEM. * P<0.05, relative to 5-FU. # P<0.05, relative to [Gly2]GLP-2 (SEQ ID NO:54).
FIG. 9 is a set of graphs showing the effect of compound 1857 (SEQ ID NO:45) (5, 15, 45, 135, and 405 nmol/kg, s.c., b.i.d.; n=6/dose group) on A) small intestine-to-body weight ratio (SI-BW), and B) small intestinal length (SI length) in mice treated with the cytostatic drug 5-Fluorouracil (5-FU). Compound 1857 (SEQ ID NO:45) was administered for 3 days prior to and for 4 days together with 5-FU, 50 mg/kg, i.p. daily. For reference, [Gly2]GLP-2 (SEQ ID NO:54) (405 nmol/kg) was given to one group of animals. Results from control animals treated with vehicle (PBS) or 5-FU alone are also shown. […] Values are means±SEM. * P<0.05, relative to 5-FU. # P<0.05, relative to [Gly2]GLP-2 (SEQ ID NO:54).
The rapid rate of proliferation of the small intestinal stem cells, makes them a susceptible target to the cytotoxic effects of the chemotherapeutic agents used in anti-cancer therapies. Consequently, clinical use of the chemotherapeutic agent 5-fluorouracil (5-FU) is frequently associated with small intestinal injury (atrophy and diarrhea in cancer patients. We have previously shown that i.p. administration of 50 mg/kg 5-FU once daily for four days induces significant small intestinal atrophy in C57BL mice. The effect of the lead compounds, 1846 (SEQ ID NO:34), 1848 (SEQ ID NO:36), 1855 (SEQ ID NO:43), and 1857 (SEQ ID NO:45) on 5-FU-induced small intestinal atrophy was investigated in mice. 1846 (SEQ ID NO:34), 1848 (SEQ ID NO:36), 1855 (SEQ ID NO:43), or 1857 (SEQ ID NO:45) were administered twice daily for three days prior to 5-FU and for four days together with 5-FU administration. The lead compounds were each administered at five different doses (5, 15, 45, 135 and 405 nmol/kg) that have been previously shown to effectively stimulate small intestine growth in healthy mice (Example 9). […]

Substance: [Gly2, Glu3, Leu10, Ser11, Ala16,24,28]hGLP-2(1-33)-NH2 [Compound 1857]
- Small intestine mass relative to [Gly2]GLP-2 (male C57BL mice): increased small intestine mass relative to [Gly2]GLP-2
- Preferential growth of small intestine versus colon (small intestine-colon sensitivity) (male C57BL mice): preferentially stimulating epithelial growth in the small intestine
- colon mass relative to body weight, % [Gly2]GLP-2 (male C57BL mice): 90 % [Gly2]GLP-2
- small intestine-colon sensitivity index, (SI/Colon)X/(SI/Colon)[Gly2]GLP-2 % (male C57BL mice): 130 % [Gly2]GLP-2
- 5-FU-induced small intestine atrophy (SI-BW, SI length) [1]: prevented 5-FU-induced small intestine atrophy; also recorded: dose-dependently prevented 5-FU-induced SI atrophy and maintained SI-BW at levels similar to PBS controls
- Efficacy on SI-length compared with 405 nmol/kg [Gly2]GLP-2 [1]: significantly more efficacious than 405 nmol/kg [Gly2]GLP-2
- Efficacy on SI-BW compared with 405 nmol/kg [Gly2]GLP-2 [1]: significantly more efficacious than 405 nmol/kg [Gly2]GLP-2

Substance: [Gly2, Glu3, Ser8,11, Leu10, Ala16,24,28]hGLP-2(1-33)-(Lys)6-NH2 (HGEGSFSSELSTILDALAARDFIAWLIATKITDKKKKKK-NH2) [Compound 1846]
- Small intestine mass relative to [Gly2]GLP-2 (male C57BL mice): increased small intestine mass relative to [Gly2]GLP-2
- Preferential growth of small intestine versus colon (small intestine-colon sensitivity) (male C57BL mice): supplementary increase in the weight of the small intestine without significant effecting the weight of the colon; also recorded: preferentially stimulating epithelial growth in the small intestine
- colon mass relative to body weight, % [Gly2]GLP-2 (male C57BL mice): 102 % [Gly2]GLP-2
- small intestine-colon sensitivity index, (SI/Colon)X/(SI/Colon)[Gly2]GLP-2 % (male C57BL mice): 118 % [Gly2]GLP-2
- 5-FU-induced small intestine atrophy (SI-BW, SI length) [1]: prevented 5-FU-induced small intestine atrophy; also recorded: dose-dependently prevented 5-FU-induced SI atrophy and maintained SI-BW at levels similar to PBS controls

Substance: [Gly2, Glu3, Thr5, Ser8, Leu10, Ala11,16,24,28]hGLP-2(1-33)-(Lys)6-NH2 (HGEGTFSSELATILDALAARDFIAWLIATKITDKKKKKK-NH2) [Compound 1848]
- Small intestine mass relative to [Gly2]GLP-2 (male C57BL mice): increased small intestine mass relative to [Gly2]GLP-2
- Preferential growth of small intestine versus colon (small intestine-colon sensitivity) (male C57BL mice): supplementary increase in the weight of the small intestine without significant effecting the weight of the colon; also recorded: preferentially stimulating epithelial growth in the small intestine
- colon mass relative to body weight, % [Gly2]GLP-2 (male C57BL mice): 93 % [Gly2]GLP-2
- small intestine-colon sensitivity index, (SI/Colon)X/(SI/Colon)[Gly2]GLP-2 % (male C57BL mice): 117 % [Gly2]GLP-2
- 5-FU-induced small intestine atrophy (SI-BW, SI length) [1]: prevented 5-FU-induced small intestine atrophy; also recorded: dose-dependently prevented 5-FU-induced SI atrophy and maintained SI-BW at levels similar to PBS controls
- Efficacy on SI-length compared with 405 nmol/kg [Gly2]GLP-2 [1]: significantly more efficacious than 405 nmol/kg [Gly2]GLP-2
- Efficacy on SI-BW compared with 405 nmol/kg [Gly2]GLP-2 [1]: significantly more efficacious than 405 nmol/kg [Gly2]GLP-2
- Efficacy on 5-FU-induced atrophy compared with [Gly2]GLP-2 (figure legends) [1]: more efficacious than [Gly2]GLP-2

Substance: [Gly2, Glu3, Thr5, Ser8, Leu10, Ala11,16,24,28]hGLP-2(1-33)-NH2 [Compound 1855]
- Small intestine mass relative to [Gly2]GLP-2 (male C57BL mice): increased small intestine mass relative to [Gly2]GLP-2
- Preferential growth of small intestine versus colon (small intestine-colon sensitivity) (male C57BL mice): supplementary increase in the weight of the small intestine without significant effecting the weight of the colon; also recorded: preferentially stimulating epithelial growth in the small intestine
- colon mass relative to body weight, % [Gly2]GLP-2 (male C57BL mice): 88 % [Gly2]GLP-2
- small intestine-colon sensitivity index, (SI/Colon)X/(SI/Colon)[Gly2]GLP-2 % (male C57BL mice): 120 % [Gly2]GLP-2
- 5-FU-induced small intestine atrophy (SI-BW, SI length) [1]: prevented 5-FU-induced small intestine atrophy; also recorded: dose-dependently prevented 5-FU-induced SI atrophy and maintained SI-BW at levels similar to PBS controls
- Efficacy on SI-BW compared with 405 nmol/kg [Gly2]GLP-2 [1]: significantly more efficacious than 405 nmol/kg [Gly2]GLP-2
- Efficacy on 5-FU-induced atrophy compared with [Gly2]GLP-2 (figure legends) [1]: more efficacious than the equimolar dose of [Gly2]GLP-2; also recorded: more efficacious than a high dose of [Gly2]GLP-2
